Measurements as given in US11452718B2 (AVALYN PHARMA INC., priority 2012, dated 2022).
Values joined by “and” are separate entries in the source; they are usually repeats but may differ in a detail not shown here. Equal entries are not always repeated. Where two headings read alike, the source gives them in different places.

Experiments:
[1] = Process temperature development study (60° C. dissolution, cooling to 25° C.); type: physicochemical; conditions: for Pirfenidone (mg/mL) >Re-crystal: after stepwise cooling to 25° C. and later re-crystallization
Method: Formulations were prepared as described in Table 11. […] The final volume of each formulation was 5 mL. […] Each sample was mixed thoroughly and agitated overnight at 60° C. Rapid cooling and step-wise cooling from 60° C. to 25° C. was performed. HPLC analysis was performed on samples taken after overnight incubation and after cooling to 25° C. Prior to HPLC analysis, formulations were filtered via syringe through a 0.45 μm PVDF filter.

[2] = Pharmacokinetics and tissue distribution (lung, plasma, heart, kidney) of co-solvent formulations, bolus intratracheal aerosol; type: in vivo, Sprague-Dawley rats; conditions: for concentration at 4 min / concentration at 0.1 h / concentration at 0.167 h / concentration at 0.333 h: Sprague-Dawley, rat, lung, other: intratracheal bolus aerosol (nebulizing catheter), 4 mg/kg, about 4 mg/kg pirfenidone IT bolus aerosol, read-out: Analyte in lung tissue, Mean; for concentration at 4 min: 0.0667 hr
Method: Selected formulations were prepared for pharmacokinetic analysis following aerosol delivery to rat lung. […] Formulations prepared for this study are outlined in Table 9. […] The sample was agitated until completely dissolved. […] Filtered samples were analyzed by HPLC.

[3] = Pharmacokinetics and lung-tissue distribution after oral gavage or intratracheal aerosol; type: in vivo, Sprague-Dawley rats; conditions: for Lung AUC: for time >1 μg/g
Method: Solutions were vortexed until all crystals dissolved. […] Plasma samples were taken at pre-dose, 0.08, 0.16, 0.25, 0.5, 0.75, 1.0, 1.5, 2, 4, and 6 hours post dosing. For lung tissue samples, eight additional rats were also dosed 70 mg/kg by the oral route. Lungs were taken at pre-dose 0.08, 0.5, 2, and 4 hours post dosing. Materials were extracted and pirfenidone quantitated as μg/mL plasma and μg/gram lung tissue. […]

[4] = Aqueous formulation observations: solubility, salt addition, taste, dissolution time; type: physicochemical
Method: However, at this (and lower) concentration it was determined that salt addition was required to improve acute tolerability upon inhalation of a nebulized solution (otherwise a hypotonic solution). To address tonicity, NaCl or MgCl2 were added. […] This effect was not observed at ˜pH 8.

[5] = in vivo; cited from earlier work
[6] = cited from earlier work; for oral Cmax / Cmax: IPF patients; for Cmax: read-out: oral Cmax
[7] = Buffer and pH effects: pirfenidone solubility in citrate and phosphate buffers; type: physicochemical; conditions: Citrate buffer 5 mM, pH 6; ambient temperature overnight
Method: The sample was agitated at ambient temperature overnight. The sample was visually inspected, appearance recorded, centrifuged to sediment any un-dissolved material, and the supernatant withdrawn via syringe through a 0.22 μm PVDF filter. […] The remaining filtered sample was split into three equal volumes in glass vials and placed at 25° C./60RH, 40° C./75RH and refrigeration. Samples were wrapped in aluminum foil to reduce light exposure. After the first night of incubation, samples were briefly visually inspected for any signs of discoloration or precipitate formation.

[8] = EtOH 0, PG 8, PS80 0 % v/v, 92% phosphate buffer (5 mM), pH 6.6
[9] = EtOH 0, PG 8, PS80 0.04 % v/v, 92% phosphate buffer (5 mM), pH 6.7
[10] = EtOH 4, PG 0, PS80 0.04 % v/v, 96% phosphate buffer (5 mM), pH 6.6
[11] = EtOH 4, PG 8, PS80 0 % v/v, 88% phosphate buffer (5 mM), pH 6.7
[12] = EtOH 4, PG 8, PS80 0.04 % v/v, 88% phosphate buffer (5 mM), pH 6.7
[13] = bolus aerosol intratracheal 1 mg/kg
[14] = bolus aerosol intratracheal 5 mg/kg

With Cc1ccc(=O)n(-c2ccccc2)c1 [pirfenidone, 5-methyl-1-phenyl-2-(1H)-pyridone] the “full dissolution on heating” value ([1]; 60° C.) was at least 50 mg/mL, the “Observations: dissolution” value [1, 8] was “Fully dissolved after overnight at 60 °C” and the “Observations: stable at 25° C. before re-crystallization” value (shortened to “Observations: stable”) [1, 8] was “Stable at 25 °C for >4 hours before re-”. For the same molecule, the “Pirfenidone (mg/mL) >60° C.” value [1, 8] was 54.6 mg/mL, the “Pirfenidone (mg/mL) >Re-crystal” value [1, 8] was 18.6 mg/mL and the “Observations: dissolution” value [1, 9] was “Fully dissolved after overnight at 60 °C”. The “Observations: stable” value [1, 9] was “Stable at 25 °C for >4 hours before re-”, the “Pirfenidone (mg/mL) >60° C.” value [1, 9] was 52.8 mg/mL and the “Pirfenidone (mg/mL) >Re-crystal” value [1, 9] was 22.3 mg/mL. The “Observations: dissolution” value [1, 10] was “Fully dissolved after overnight at 60 °C”, the “Observations: stable” value [1, 10] was “Stable at 25 °C for >4 hours before re-” and the “Pirfenidone (mg/mL) >60° C.” value [1, 10] was 50.7 mg/mL. The “Pirfenidone (mg/mL) >Re-crystal” value [1, 10] was 22.4 mg/mL, the “Observations: dissolution” value [1, 11] was “Fully dissolved after overnight at 60 °C” and the “Observations: stable” value [1, 11] was “Stable at 25 °C for >4 hours before re-”. The “Pirfenidone (mg/mL) >60° C.” value [1, 11] was 50.34 mg/mL, the “Pirfenidone (mg/mL) >Re-crystal” value [1, 11] was 27.6 mg/mL and the “Observations: dissolution” value [1, 12] was “Fully dissolved after overnight at 60 °C”. For the same molecule, the “Observations: stable” value [1, 12] was “Stable at 25 °C for >4 hours before re-”, the “Pirfenidone (mg/mL) >60° C.” value [1, 12] was 51.8 mg/mL and the “Pirfenidone (mg/mL) >Re-crystal” value [1, 12] was 26.8 mg/mL. The “outcome of rapid cooling” value ([1]; rapid cooling to 25° C.) was “rapid recrystallization”, the “concentration staying in solution for several hours” value ([1]; slow step-wise cooling from 60° C. to 25° C.) was “about 50 mg/mL” and the concentration at 4 min ([2]; Group 1) was 10400 ng/g. It also gave a concentration at 0.1 h ([2]; Group 1) of 7530 ng/g, a concentration at 0.167 h ([2]; Group 1) of 5360 ng/g and a concentration at 0.333 h ([2]; Group 1) of 4150 ng/g. It also gave a concentration at 4 min ([2]; Group 2) of 8530 ng/g, a concentration at 0.1 h ([2]; Group 2) of 5980 ng/g and a concentration at 0.167 h ([2]; Group 2) of 5710 ng/g. For the same molecule, the concentration at 0.333 h ([2]; Group 2) was 3790 ng/g, the concentration at 4 min ([2]; Group 3) was 17300 ng/g and the concentration at 0.1 h ([2]; Group 3) was 7340 ng/g. The concentration at 0.167 h ([2]; Group 3) was 6160 ng/g, the concentration at 4 min ([2]; Group 4) was 7770 ng/g and the concentration at 0.1 h ([2]; Group 4) was 7500 ng/g. The concentration at 0.167 h ([2]; Group 4) was 5230 ng/g, the concentration at 4 min ([2]; Group 5) was 10700 ng/g and the concentration at 0.1 h ([2]; Group 5) was 5830 ng/g. For the same molecule, the concentration at 0.167 h ([2]; Group 5) was 8780 ng/g, the concentration at 4 min ([2]; Group 6) was 7930 ng/g and the concentration at 0.1 h ([2]; Group 6) was 6830 ng/g. The concentration at 0.167 h ([2]; Group 6) was 5170 ng/g, the adverse events ([2]; about 4 mg/kg intratracheal aerosol, co-solvent formulations) was “No adverse events were noted” and the “Lung TOE: time of exposure over 1 μg/g lung tissue” value (“Lung TOE … over 1 μg/g lung tissue” below) [3, 13] was 5 min. For the same molecule, the “Lung Cmax” value ([3]; bolus aerosol intratracheal 1 mg/kg, immediate post-dose calculated from the direct-lung delivered dose) was 101 µg/g, the “Lung TOE … over 1 μg/g lung tissue” value [3, 14] was 84 min and the “Lung Cmax” value ([3]; bolus aerosol intratracheal 5 mg/kg, immediate post-dose calculated from the direct-lung delivered dose) was 508 µg/g. For the same molecule, the “Lung AUC” value [3, 13] was 5.2 mg·h/kg, the “Lung AUC” value [3, 14] was 25.4 mg·h/kg and the “Lung AUC” value ([3]; oral 70 mg/kg) was 4.3 mg·h/kg. The “Lung Cmax” value ([3]; oral 70 mg/kg) was 3.6 µg/g, the “Lung TOE … over 1 μg/g lung tissue” value ([3]; oral 70 mg/kg) was 89 min and the “formulation stability on addition of MgCl2” value ([4]; MgCl2 added, 1:1 and 1:2 mole ratios magnesium to pirfenidone) was “maintained a stable, soluble solution”. For the same molecule, the “formulation stability on addition of NaCl” value ([4]; NaCl added to address tonicity, ambient storage) was “destabilized the formulation and resulted in precipitation upon ambient storage”, the “acute tolerability upon inhalation of a nebulized solution” value ([4]; addition of NaCl) was “improved acute tolerability” and the solubility ([4]; aqueous solution, aqueous buffer, across a pH range of about 4.0 to about 8.0) was 17 mg/mL. The “administered dose excreted in the urine” value [5] was “about 80%”, the “duration of plasma level at or greater than 5 mcg/mL” value ([6]; 801 mg oral pirfenidone) was 4 h and the “oral Cmax” value ([6]; fasting-state) was “about 15.7 mcg/mL”. For the same molecule, the Cmax ([6]; fasting-state) was about 84 µM, the “oral Cmax” value ([6]; recommended fed-state) was “about 7.9 mcg/mL” and the Cmax ([6]; recommended fed-state) was about 42 µM. For the same molecule, the “change in Tmax by food” value ([6]; oral, fed-state) was “seven-fold increase”, the “reduction in Cmax by food” value ([6]; oral, fed-state) was about 50% and the “reduction in overall exposure (AUC) by food” value ([6]; oral, fed-state) was 10-15% and ~20%. For the same molecule, the “Pirfenidone Saturation Solubility” value [7] was 18.4 mg/mL.
